# Target: MAPK14 (human) (UniProt Q16539)
# Assay: Inhibition of MAPK14 Kinase Activity
# MAPK14 (human), sequence (Q16539 whole entry, looked up): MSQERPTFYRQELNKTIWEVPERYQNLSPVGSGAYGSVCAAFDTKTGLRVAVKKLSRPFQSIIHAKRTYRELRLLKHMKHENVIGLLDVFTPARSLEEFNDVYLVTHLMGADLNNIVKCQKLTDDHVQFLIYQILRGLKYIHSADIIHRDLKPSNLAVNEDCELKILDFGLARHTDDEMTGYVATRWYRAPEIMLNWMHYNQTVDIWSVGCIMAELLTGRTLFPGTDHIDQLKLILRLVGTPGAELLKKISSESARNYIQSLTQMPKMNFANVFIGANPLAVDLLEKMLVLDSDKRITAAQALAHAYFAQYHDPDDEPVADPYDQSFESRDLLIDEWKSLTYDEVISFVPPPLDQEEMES
row,IC50 [µM],SMILES
1,≤ 10,O=C1CCC(Cc2ccc(F)cc2)CN1c1c(Cl)cccc1Cl (configuration not stated)
2,≤ 10,Cc1ccc(SC2CCC(=O)N(C3C(Cl)CCCC3Cl)C2)c(C)c1 (configuration not stated)
3,≤ 10,O=C1CCC(Sc2ccc(F)cc2F)CN1c1c(Cl)cccc1Cl (configuration not stated)
4,≤ 10,CC(=O)Nc1cnc(Cl)c(N2CC(Cc3ccc(F)cc3F)CCC2=O)c1Cl (configuration not stated)
5,≤ 10,CC(=O)Nc1cc(Cl)c(N2CC(Sc3ccc(F)cc3F)CCC2=O)c(Cl)c1 (configuration not stated)
6,≤ 10,Cn1nc(C(C)(C)C)cc1NC(=O)NCc1ccccc1CC1CCC(=O)N(c2c(Cl)cccc2Cl)C1 (configuration not stated)
7,≤ 10,O=C1CCC(Sc2ccc(F)cc2F)CN1c1c(Cl)ncc(CO)c1Cl (configuration not stated)
8,≤ 10,Cc1cc(CCCCC(=O)O)cc(C)c1N1CC(Cc2ccc(F)cc2F)CCC1=O (configuration not stated)
9,≤ 10,O=C1CCC(Oc2ccccc2)CN1C1C(Cl)CCCC1Cl (configuration not stated)
10,≤ 10,COc1ccc(CC2CSC(=O)N(c3c(Cl)cccc3Cl)C2)cc1 (configuration not stated)
11,≤ 10,O=C1CCC(Cc2ccc(C(F)(F)F)cc2)CN1c1c(Cl)cccc1Cl (configuration not stated)
12,≤ 10,O=C1CCC(Cc2ccccc2)CN1c1c(Cl)ccnc1Cl (configuration not stated)
13,≤ 10,O=C1CCC(Sc2ccc(F)cc2F)CN1c1c(Cl)sc(CO)c1Cl (configuration not stated)
14,≤ 10,O=C(CCCO)Nc1cc(Cl)c(N2CC(Cc3ccc(F)cc3F)CCC2=O)c(Cl)c1 (configuration not stated)
15,≤ 10,Cc1ccc(CC2COC(=O)N(c3c(Cl)cccc3Cl)C2)c(C)c1 (configuration not stated)
16,≤ 10,O=C1CCC(Cc2cc(F)cc(F)c2)CN1c1c(Cl)cccc1Cl (configuration not stated)
17,≤ 10,CNc1cnc(Cl)c(N2CC(Sc3ccc(F)cc3F)CCC2=O)c1Cl (configuration not stated)
18,≤ 10,Cc1cc(Br)cc(C)c1N1CC(Cc2ccc(F)cc2F)CCC1=O (configuration not stated)
19,≤ 10,O=C1CCC(Sc2cc(Cl)cc(Cl)c2)CN1c1c(Cl)cccc1Cl (configuration not stated)
20,≤ 10,O=C1CCC(Cc2ccc(F)cc2F)CN1c1c(Cl)cnc(CO)c1Cl (configuration not stated)
21,≤ 10,O=C1CCC(Sc2ccc(F)cc2F)CN1C1C(Cl)CCC(O)C1Cl (configuration not stated)
22,≤ 10,Cc1cc(C)cc(CC2CCC(=O)N(c3c(Cl)cncc3Cl)C2)c1 (configuration not stated)
23,≤ 10,COc1ccccc1SC1CCC(=O)N(c2c(Cl)ccnc2Cl)C1 (configuration not stated)

row,IC50 [µM],SMILES
1,≤ 10,O=C1CCC(Oc2ccc(Cl)cc2)CN1C1C(Cl)CCCC1Cl (configuration not stated)
2,≤ 10,CN1CC(Cc2ccccc2Cl)CN(c2c(Cl)cccc2Cl)C1=O (configuration not stated)
3,≤ 10,O=C(Cc1ccccc1)NC1CCC(Cl)C(N2CC(Sc3ccc(F)cc3F)CCC2=O)C1Cl (configuration not stated)
4,≤ 10,O=C1CCC(Sc2cc(F)cc(F)c2)CN1c1c(Cl)ccnc1Cl (configuration not stated)
5,≤ 10,O=C1CCC(Oc2ccc(F)cc2F)CN1c1c(Cl)ncc(O)c1Cl (configuration not stated)
6,≤ 10,O=C1OCC(Cc2cc(F)cc(F)c2)CN1c1c(Cl)cccc1Cl (configuration not stated)
7,≤ 10,O=C1CCC(Sc2ccc(Cl)cc2Cl)CN1c1c(Cl)cccc1Cl (configuration not stated)
8,≤ 10,O=C1CCC(Sc2ccc3ccccc3c2)CN1c1c(Cl)ccnc1Cl (configuration not stated)
9,≤ 10,COc1ccc(SC2CCC(=O)N(c3c(Cl)cncc3Cl)C2)cc1 (configuration not stated)
10,≤ 10,O=C1CCC(Cc2ccccc2)CN1c1ccccc1Cl (configuration not stated)
11,≤ 10,Cc1cccc(C)c1N1C[C@@H](N(CCO)S(=O)(=O)c2ccc(F)cc2F)CCC1=O
12,≤ 10,O=C1CCC(Cc2ccc(F)cc2F)CN1c1c(Cl)ncc(CO)c1Cl (configuration not stated)
13,≤ 10,CNC(=O)c1cc(C)c(N2CC(Cc3ccc(F)cc3F)CCC2=O)c(C)c1 (configuration not stated)
14,≤ 10,O=C1CCC(Sc2ccc3ccccc3c2)CN1c1c(Cl)csc1Cl (configuration not stated)
15,≤ 10,O=C(Cc1ccccc1)Nc1ccc(Cl)c(N2CC(Oc3ccc(F)cc3F)CCC2=O)c1Cl (configuration not stated)
16,≤ 10,NC1CCC(Cl)C(N2CC(Oc3ccc(F)cc3F)CCC2=O)C1Cl (configuration not stated)
17,≤ 10,CN1CC(Cc2cccc3ccccc23)CN(c2c(Cl)cccc2Cl)C1=O (configuration not stated)
18,≤ 10,O=C1CCC(Oc2cc(F)cc(F)c2)CN1c1c(Cl)cccc1Cl (configuration not stated)
19,≤ 10,O=C1CSC(Cc2ccc(F)cc2F)CN1c1c(Cl)cc(O)cc1Cl (configuration not stated)
20,≤ 10,O=C1CCC(Oc2ccc(F)cc2F)CN1c1c(Cl)ccc(CO)c1Cl (configuration not stated)
21,≤ 10,Cc1cc(C(=O)O)cc(C)c1N1CC(Cc2ccc(F)cc2F)CNC1=O (configuration not stated)
22,≤ 10,O=C1OCC(Cc2ccc3ccccc3c2)CN1c1c(Cl)cccc1Cl (configuration not stated)
23,≤ 10,Nc1ccc(Cl)c(N2CC(Cc3ccc(F)cc3F)CSC2=O)c1Cl (configuration not stated)

row,IC50 [µM],SMILES
1,≤ 10,COC(=O)Nc1cc(Cl)c(N2CC(Cc3ccc(F)cc3F)CCC2=O)c(Cl)c1 (configuration not stated)
2,≤ 10,O=C1SCC(Cc2ccccc2Cl)CN1c1c(Cl)cccc1Cl (configuration not stated)
3,≤ 10,CN1CC(Cc2cc(Cl)cc(Cl)c2)CN(c2c(Cl)cccc2Cl)C1=O (configuration not stated)
4,≤ 10,O=C1CCC(Cc2ccc(F)cc2F)CN1c1c(Cl)cc(NCCN2CCCCC2)cc1Cl (configuration not stated)
5,≤ 10,O=C1SCC(Cc2cc(Cl)cc(Cl)c2)CN1c1c(Cl)cccc1Cl (configuration not stated)
6,≤ 10,CC(=O)Nc1ccc(Cl)c(N2CC(Cc3ccc(F)cc3F)CN(C)C2=O)c1Cl (configuration not stated)
7,≤ 10,O=C1CCC(Sc2ccc(F)cc2F)CN1C1C(Cl)CCCC1Cl (configuration not stated)
8,≤ 10,NC(=O)/C=C/c1cc(Cl)c(N2CC(Cc3ccc(F)cc3F)CCC2=O)c(Cl)c1 (configuration not stated)
9,≤ 10,O=C1NCC(Cc2ccc(F)cc2F)CN1c1c(Cl)ccc(O)c1Cl (configuration not stated)
10,≤ 10,O=C1CCC(Oc2ccccc2)CN1c1c(Cl)csc1Cl (configuration not stated)
11,≤ 10,Cc1ccc(OC2CCC(=O)N(c3c(Cl)cccc3Cl)C2)cc1 (configuration not stated)
12,≤ 10,Cc1ccc(SC2CCC(=O)N(c3c(Cl)csc3Cl)C2)cc1 (configuration not stated)
13,≤ 10,O=C1CCC(Sc2cc(Cl)cc(Cl)c2)CN1c1c(Cl)cncc1Cl (configuration not stated)
14,≤ 10,O=C1CCC(Sc2ccccc2)CN1C1C(Cl)CCCC1Cl (configuration not stated)
15,≤ 10,O=C1CCC(Oc2ccc(F)cc2F)CN1c1c(Cl)cnc(CO)c1Cl (configuration not stated)
16,≤ 10,O=C1CCC(Sc2ccccc2Cl)CN1C1C(Cl)CCCC1Cl (configuration not stated)
17,≤ 10,CC(=O)Nc1ccc(Cl)c(N2CC(Oc3ccc(F)cc3F)CCC2=O)c1Cl (configuration not stated)
18,≤ 10,O=C1NCC(Cc2cc(Cl)cc(Cl)c2)CN1c1c(Cl)cccc1Cl (configuration not stated)
19,≤ 10,O=C1CCC(Sc2ccc(Cl)cc2)CN1c1c(Cl)cncc1Cl (configuration not stated)
20,≤ 10,O=C1CCC(Oc2ccc3ccccc3c2)CN1C1C(Cl)CCCC1Cl (configuration not stated)
21,≤ 10,CNc1sc(Cl)c(N2CC(Cc3ccc(F)cc3F)CCC2=O)c1Cl (configuration not stated)
22,≤ 10,O=C1CCC(Cc2cc(Cl)cc(Cl)c2)CN1c1c(Cl)cccc1Cl (configuration not stated)
23,≤ 10,O=C(Cc1ccccc1)Nc1cc(Cl)c(N2CC(Cc3ccc(F)cc3F)OCC2=O)c(Cl)c1 (configuration not stated)

row,IC50 [µM],SMILES
1,≤ 10,O=C1SCC(Cc2ccc(F)cc2F)CN1c1c(Cl)ccc(CO)c1Cl (configuration not stated)
2,≤ 10,O=C1CCC(Sc2ccc(F)cc2)CN1c1c(Cl)ccnc1Cl (configuration not stated)
3,≤ 10,CCOC(=O)CNc1cc(Cl)c(N2CC(Cc3ccc(F)cc3F)CCC2=O)c(Cl)c1 (configuration not stated)
4,≤ 10,N[C@H]1C[C@@H](Cc2ccc(F)cc2F)CN(c2c(Cl)cccc2Cl)C1=O
5,≤ 10,O=C(Cc1ccccc1)Nc1cnc(Cl)c(N2CC(Cc3ccc(F)cc3F)CCC2=O)c1Cl (configuration not stated)
6,≤ 10,COc1ccc(SC2CCC(=O)N(c3c(Cl)csc3Cl)C2)cc1 (configuration not stated)
7,≤ 10,O=C1CSC(Cc2cc(Cl)cc(Cl)c2)CN1c1c(Cl)cccc1Cl (configuration not stated)
8,≤ 10,Cc1cc(C(=O)O)cc(C)c1N1C[C@@H](Cc2ccc(F)cc2F)C[C@@H](C)C1=O
9,≤ 10,O=C1CCC(Cc2ccc3ccccc3c2)CN1C1C(Cl)CCCC1Cl (configuration not stated)
10,≤ 10,Cc1ccccc1CC1CCC(=O)N(c2c(Cl)cccc2Cl)C1 (configuration not stated)
11,≤ 10,CC(=O)NCCN(C(=O)OC(C)(C)C)c1cc(Cl)c(N2CC(Cc3ccc(F)cc3F)CCC2=O)c(Cl)c1 (configuration not stated)
12,≤ 10,COC(=O)/C=C/c1ccccc1CC1CCC(=O)N(c2c(Cl)cccc2Cl)C1 (configuration not stated)
13,≤ 10,Cc1cc(NC(=O)OC(C)(C)C)cc(C)c1N1CC(Cc2ccc(F)cc2F)CCC1=O (configuration not stated)
14,≤ 10,O=C1CCC(Cc2cc(Cl)cc(Cl)c2)CN1c1c(Cl)ccnc1Cl (configuration not stated)
15,≤ 10,CN1CC(Cc2ccc(F)cc2F)CN(c2c(Cl)cc(NC(=O)Cc3ccccc3)cc2Cl)C1=O (configuration not stated)
16,≤ 10,CN1CCN(C(=O)CNc2cc(Cl)c(N3CC(Cc4ccc(F)cc4F)CCC3=O)c(Cl)c2)CC1 (configuration not stated)
17,≤ 10,O=C1CCC(Sc2ccccc2F)CN1c1c(Cl)csc1Cl (configuration not stated)
18,≤ 10,CCNC(=O)Nc1cc(Cl)c(N2CC(Cc3ccc(F)cc3F)CCC2=O)c(Cl)c1 (configuration not stated)
19,≤ 10,Cc1ccc(CC2CCC(=O)N(c3c(Cl)ccnc3Cl)C2)cc1 (configuration not stated)
20,≤ 10,O=C1CCC(Sc2ccc(Cl)cc2)CN1c1c(Cl)ccnc1Cl (configuration not stated)
21,≤ 10,Cc1ccc(OC2CCC(=O)N(C3C(Cl)CCCC3Cl)C2)c(C)c1 (configuration not stated)
22,≤ 10,O=C1CCC(Sc2ccc(F)cc2F)CN1c1c(Cl)cncc1Cl (configuration not stated)
23,≤ 10,Cc1cc(C(=O)N(C)C)cc(C)c1N1CC(Cc2ccc(F)cc2F)CCC1=O (configuration not stated)

row,IC50 [µM],SMILES
1,≤ 10,CNc1ccc(Cl)c(N2CC(Cc3ccc(F)cc3F)CCC2=O)c1Cl (configuration not stated)
2,≤ 10,CC(C)(C)OC(=O)Nc1ccc(N2CC(Cc3ccc(F)cc3F)CCC2=O)c(Cl)c1 (configuration not stated)
3,≤ 10,NC(=O)NCCNc1cc(Cl)c(N2CC(Cc3ccc(F)cc3F)CCC2=O)c(Cl)c1 (configuration not stated)
4,≤ 10,O=C1NCC(Cc2ccc3ccccc3c2)CN1c1c(Cl)cccc1Cl (configuration not stated)
5,≤ 10,Cc1ccc(OC2CCC(=O)N(c3c(Cl)csc3Cl)C2)c(C)c1 (configuration not stated)
6,≤ 10,CN1CC(Cc2ccc(F)cc2F)CN(c2c(Cl)cc(N)cc2Cl)C1=O (configuration not stated)
7,≤ 10,O=C1NCC(Cc2ccc(F)cc2F)CN1c1c(Cl)cccc1Cl (configuration not stated)
8,≤ 10,O=C1SCC(Cc2ccc(Cl)cc2)CN1c1c(Cl)cccc1Cl (configuration not stated)
9,≤ 10,O=C1CCC(Cc2ccc(F)cc2F)CN1c1nccs1 (configuration not stated)
10,≤ 10,CNc1cc(Cl)c(N2CC(Oc3ccc(F)cc3F)CCC2=O)c(Cl)n1 (configuration not stated)
11,≤ 10,C[C@@H]1C[C@H](Cc2ccc(F)cc2F)CN(c2c(Cl)cc([N+](=O)[O-])cc2Cl)C1=O
12,≤ 10,Cc1ccc(OC2CCC(=O)N(C3C(Cl)CCCC3Cl)C2)cc1 (configuration not stated)
13,≤ 10,COc1ccccc1SC1CCC(=O)N(c2c(Cl)cncc2Cl)C1 (configuration not stated)
14,≤ 10,O=C1CCC(Oc2ccccc2Cl)CN1c1c(Cl)cccc1Cl (configuration not stated)
15,≤ 10,O=C1CCC(Oc2ccc(Cl)cc2Cl)CN1c1c(Cl)cncc1Cl (configuration not stated)
16,≤ 10,O=C1CCC(Oc2ccc(Cl)cc2)CN1c1c(Cl)cncc1Cl (configuration not stated)
17,≤ 10,CC(C)(C)OC(=O)Nc1cc(Cl)c(N2CC(C(O)c3ccc(F)cc3F)CCC2=O)c(Cl)c1 (configuration not stated)
18,≤ 10,CN1CC(Cc2cc(F)cc(F)c2)CN(c2c(Cl)cccc2Cl)C1=O (configuration not stated)
19,≤ 10,NC1CCC(Cl)C(N2CC(Cc3ccc(F)cc3F)CCC2=O)C1Cl (configuration not stated)
20,≤ 10,CC(=O)Nc1sc(Cl)c(N2CC(Oc3ccc(F)cc3F)CCC2=O)c1Cl (configuration not stated)

# — the Kinase Knowledgebase extract (Sharma et al. 2016)
